Laboratory results reported in patent US20150056269A1, “LIPOSOME COMPRISING AT LEAST ONE CHOLESTEROL DERIVATIVE” (TROPHOS, priority 2011, published 2015).
≈ marks a conversion by molar mass, not a printed value. Read-outs that look alike come from different tables or passages of the source.

Assays:
[1] = Suspensions of EPC liposomes containing the derivatives of formula (I): concentration in liposomes and particle size; type: physicochemical; settings: for Concentration of compound in mg/mL in the liposomes: EPC liposomes, after extrusion and solvent removal; for Particle size (nm): EPC liposomes containing the compound
Protocol: A solution of lipids at 250 mg/mL is prepared by dissolving defined quantities of EPC and the compound of formula (I) in tert-butanol or a mixture of tert-butanol and absolute ethanol (v/v). This lipid solution is mixed at a certain temperature with aqueous buffer in order to obtain a final concentration of solvent of 15 to 17% and of product of formula (I) of […].
The large multilamellar vesicles are then extruded at a fixed temperature through 3 polycarbonate filters by 10 consecutive passes. The non encapsulated compound of formula (I) is removed on the filters.
The solvent is eliminated by filtration on membrane by washing with buffer in order to achieve a percentage of final solvent of the order of 0.4%.

[2] = Maximum solubility of the compounds of formula (I) in water and different solvents; type: physicochemical; settings: for solubility: read-out: Maximum solubility (concentration)
Protocol: The maximum solubility of the compounds of formula (I) was tested in water and different solvents: […]

[3] = Liposome based on egg phospholipids
[4] = liposome based on egg phospholipids, oil or lipid

Structure (SMILES)	Concentration of compound in mg/mL in the liposomes [1] [mg/mL]	Particle size (nm) [1] [nm]	also measured
CC(C)CCCC(C)C1CCC2C3CCC(=O)C(C)(CCCO)C3CCC12C (centres unmarked) [Compound 8, 3-hydroxy-3,5-seco-4-norcholestan-5-one]	11.4	–	–
CC(C)CCCC(C)C1CCC2C3CCC(=NO)C(C)(CCCO)C3CCC12C (centres unmarked) [Compound 1, 3-hydroxy-3,5-seco-4-norcholestan-5-one oxime]	8.1	81.4	Maximum solubility (concentration) ([2]; (2-hydroxypropyl)-beta-cyclodextrin, 30% PBS buffer): 700 µg/mL; Maximum solubility (concentration) ([2]; Intralipid 10): 1000 µg/mL; Maximum solubility (concentration) ([2]; Intralipid 10/Solutol HS15/ethanol 92/3/5): 5000 µg/mL; Maximum solubility (concentration) [2, 3]: 30000 µg/mL; Maximum solubility (concentration) ([2]; Soya oil): 6000 µg/mL; Maximum solubility (concentration) ([2]; Water): 1 µg/mL
CC(C)CCC[C@@H](C)[C@H]1CC[C@H]2[C@@H]3CCC4=CC(=NO)CC[C@]4(C)[C@H]3CC[C@]12C [Compound 3, cholest-4-en-3-one oxime]	12.4	88.9	solubility [2, 4]: 12400 µg/mL (≈ 31000 µM); solubility ([2]; water): 0.1 µg/mL (≈ 0.25 µM)
CC(C)=CCC[C@@H](C)[C@H]1CC[C@H]2[C@@H]3CCC4=CC(=NO)CC[C@]4(C)[C@H]3CC[C@]12C [Compound 4, cholest-4,24-dien-3-one oxime]	14.5	80.7	solubility ([2]; Intralipid 10, oil or lipid): 340 µg/mL (≈ 855 µM); solubility [2, 4]: 14500 µg/mL (≈ 36500 µM); solubility ([2]; water): 0.1 µg/mL (≈ 0.251 µM)
CC(C)CCC[C@@H](C)[C@H]1CC[C@H]2[C@@H]3CCC4=C(F)C(=NO)CC[C@]4(C)[C@H]3CC[C@]12C [Compound 5, 4-fluoro-cholest-4-en-3-one oxime]	3.6	79.1	–
CCC[C@@]1(C)C(=NO)CC[C@H]2[C@@H]3CC[C@H]([C@H](C)CCCC(C)C)[C@@]3(C)CC[C@@H]21 [Compound 6, 3,5-seco-4-norcholestan-5-one oxime]	8.2	84.7	Maximum solubility (concentration) ([2]; Intralipid 10): 400 µg/mL; Maximum solubility (concentration) [2, 3]: 8200 µg/mL; Maximum solubility (concentration) ([2]; Water): 0.1 µg/mL
CC(C)=CCC[C@@H](C)[C@H]1CC[C@H]2[C@@H]3CCC4=CC(=O)CC[C@]4(C)[C@H]3CC[C@]12C [Compound 9, cholest-4,24-dien-3-one]	10.1	–	–
CC(C)CCCC(C)C1CCC2C3CCC(=NO)C(C)(CCC(C)(C)O)C3CCC12C (centres unmarked) [Compound 2, 3,3-dimethyl-3-hydroxy-3,5-seco-4-norcholestan-5-one oxime]	9.2	79.5	–
CC(C)CCC[C@@H](C)[C@H]1CC[C@H]2[C@@H]3CCC4=CC(=O)CC[C@]4(C)[C@H]3CC[C@]12C [Compound 7, cholest-4-en-3-one]	12.1	–	–
